Values joined by “and” are separate entries in the source; they are usually repeats but may differ in a detail not shown here. Identical values can stand only once.
How the values were obtained:
Assay type in all cases: in vivo, human
[1] = tested on: prostate cancer; test: Progression-free survival of prostate cancer patients in phase 1A study of AZD4635, grouped by group I signature
Procedure: To derive signatures geared toward adenosine-drive prostate cancers, time-series of samples from 96 patients prostate cancer patients enrolled in the phase 1A study of AZD4635 (NCT02740985) were collected and analyzed for gene expression by using the NanoString nCounter FLEX Analysis System and the commercially available 770-gene, human PanCancer Immune Profiling Panel (NanoString). The time series was up to 120 weeks for some patients. Signatures were tested for their concordance with progression-free survival (PFS), where progression is objective disease progression (by PSA recurrence or RECIST 1.1 criteria), or death by any cause in the absence of progression. (A concordance index of 0.5 represents random chance; a concordance index of 1 represents perfect prediction.) The concordance index, in this context, is a measure of how successful a given signature is in predicting PFS; that is, if stratifying patients into ‘adenosine-low’ and ‘adenosine-high’ groups correlated with the adenosine-high group having a longer median PFS than the adenosine-low group (patients with tumors that are more strongly adenosine drive should benefit more from treatment with the A2AR antagonist AZD4635). The stronger that correlation, the greater the concordance index.

[2] = Phase 1A study NCT02740985: safety, maximum tolerated dose; details: monotherapy, PO daily, patients with treatment refractory solid tumours
Procedure: (§1) The first-in-human trial, NCT02740985, was conducted to assess safety, PK and pharmacodynamic activity of AZD4635 as monotherapy and in combination with durvalumab in patients with treatment refractory solid tumours. Pre-dose and on-treatment tumour biopsies were collected from 7 subjects who were treated with AZD4635 monotherapy at or below the maximum tolerated dose (MTD) of 100 mg PO daily.

[3] = tested on: adenosine signalling signature (A2AR); test: Phase 1A study NCT02740985: adenosine signalling signature scores in pre-dose and on-treatment tumour biopsies
From the text: We scored transcriptome data with the signature using GSVA (60). This method is robust to outlying genes expressed at different orders of magnitude and generates scores amenable to downstream statistical interpretation. We observe a strong linear correlation between signatures representing immune processes/features and tumour purity in TCGA (see FIG. 7). To account for this bias we adjust the signature scores for tumour purity by fitting a linear regression derived from all samples in TCGA versus tumour purity and then applying the following correction:
Immune cell infiltrates were determined with an SVR approach based on CIBERSORT (36) to define relative immune cell abundance. To study the association of adenosine with CD8^+ T cell infiltration we consider CD8 high tumours to be greater than the median of CD8A expression across all samples. All other cell or cell-state signatures were scored using GSVA. NK cell exhaustion was determined using expression of KIR3DL1, KIR3DL2, IL2RA, IL15RA, HAVCR2 and EOMES. Cytotoxicity was determined using the expression of: NKG7, CST7, PRF1, GZMA, GZMB and IFNG. CD8 Exhaustion was determined using the signature provided in (Danaher et al. 2017). IFNG signalling was determined using the signature presented by (Ayers et al. 2017).
as §1
Total RNA was extracted from tumour tissue macrodissected from […] thick FFPE sections using the miRNeasy FFPE Kit (QIAGEN). RNA integrity and quantity were assessed on the TapeStation 2200 using the RNA ScreenTape System (Agilent). […]
The RNA was subsequently analyzed for gene expression using the NanoString nCounter FLEX Analysis System and the commercially available 770-gene, human PanCancer Immune Profiling Panel (NanoString). […]

Cc1cc(-c2nnc(N)nc2-c2ccc(F)cc2)cc(Cl)n1 [AZD4635, 6-(2-chloro-6-methylpyridin-4-yl)-5-(4-fluorophenyl)-1,2,4-triazin-3-amine]
median PFS, adenosine-low group ([1]; p=0.008 vs adenosine-high): 12 weeks
median PFS, adenosine-high group ([1]; p=0.008 vs adenosine-low): 34 weeks
maximum tolerated dose (MTD) [2]: 100 mg
patients with reduced adenosine scores who also had increases in gene expression signatures of cytolytic activity and IFNG signalling ([3]; of the 5 patients with reduced scores, out of 7 treated): 4 patients
patients with reduced adenosine signalling scores ([3]; solid tumours, AZD4635 monotherapy once daily at or below MTD, on-treatment vs pre-dose biopsy): 5 of the 7 and 5 of 7
share of patients with reduced adenosine signalling scores ([3]; solid tumours, AZD4635 once daily, 7 patients): 70%

Reference: patent publication US20230332239A1, “METHODS OF TREATING CANCER” (ASTRAZENECA AB, priority 2019, published 2023)
